Target: T1, human mGlu2 receptor (Homo sapiens, UniProt Q14416)
T1 construct: expressed in transfected cells; host or cells: CHO cells
Test: [35S]GTPγS binding assay, mGluR2 PAM
Assay type: biochemical
Conditions: GTPγS - hmGluR2 PAM pEC50, in presence of glutamate at EC20; EC50 expressed in M
Experimental: [^35S]GTPγS Binding Assay
The [^35S]GTPγS binding assay is a functional membrane-based assay used to study G-protein coupled receptor (GPCR) function whereby incorporation of a non-hydrolysable form of GTP, [^35S]GTPγS (guanosine 5′-triphosphate, labelled with […] ^35S), is measured.
Cells were then collected by scraping in PBS and cell suspension was centrifuged (10 min at 4000 RPM in benchtop centrifuge). Supernatant was discarded and pellet gently resuspended in 50 mM Tris-HCl, pH 7.4 by mixing with a vortex and pipetting up and down. The suspension was centrifuged at 16,000 RPM (Sorvall RC-5C plus rotor SS-34) for 10 minutes and the supernatant discarded. The pellet was homogenized in 5 mM Tris-HCl, pH 7.4 using an ultra-turrax homogenizer and centrifuged again (18,000 RPM, 20 min, 4° C.). The final pellet was resuspended in 50 mM Tris-HCl, pH 7.4 and stored at −80° C. in appropriate aliquots before use. Protein concentration was determined by the Bradford method (Bio-Rad, USA) with bovine serum albumin as standard.
Measurement of mGluR2 positive allosteric modulatory activity of test compounds was performed as follows. Test compounds and glutamate were diluted in assay buffer containing 10 mM HEPES acid, 10 mM HEPES salt, pH 7.4, 100 mM NaCl, 3 mM MgCl2 and 10 μM GDP. Human mGlu2 receptor-containing membranes were thawed on ice and diluted in assay buffer supplemented with 14 μg/ml saponin. Membranes were pre-incubated with compound alone or together with a predefined (˜EC20) concentration of glutamate (PAM assay) for 30 min at 30° C. After addition of [^35S]GTPγS (f c. 0.1 nM), assay mixtures were shaken briefly and further incubated to allow [^35S]GTPγS incorporation on activation (30 minutes, 30° C.). Final assay mixtures contained 7 μg of membrane protein in 10 mM HEPES acid, 10 mM HEPES salt, pH 7.4, 100 mM NaCl, 3 mM MgCl2, 10 μM GDP and 2 μg/ml saponin. […] Filters were washed 6 times with ice-cold 10 mM NaH2PO4/10 mM Na2HPO4, pH 7.4. Filters were then air-dried, and 40 μl of liquid scintillation cocktail (Microscint-O) was added to each well. Membrane-bound radioactivity was counted in a Microplate Scintillation and Luminescence Counter from Perkin Elmer.
The concentration-response curves of representative compounds of the present invention—obtained in the presence of EC20 of mGluR2 agonist glutamate to determine positive allosteric modulation (PAM)—were generated using the Lexis software interface (developed at J&J). Data were calculated as % of the control glutamate response, defined as the maximal response that is generated upon addition of glutamate alone. Sigmoid concentration-response curves plotting these percentages versus the log concentration of the test compound were analyzed using non-linear regression analysis. The concentration producing half-maximal effect is then calculated as EC50.
The pEC50 values below were calculated as the −log EC50, when the EC50 is expressed in M. Emax is defined as relative maximal effect (i.e. maximal % effect relative to the control glutamate response).
All compounds were tested in presence of mGluR2 agonist glutamate at a predetermined EC20 concentration, to determine positive allosteric modulation. pEC50 values were calculated from a concentration-response experiment of at least 8 concentrations.

T1 sequence (Q14416 19-872): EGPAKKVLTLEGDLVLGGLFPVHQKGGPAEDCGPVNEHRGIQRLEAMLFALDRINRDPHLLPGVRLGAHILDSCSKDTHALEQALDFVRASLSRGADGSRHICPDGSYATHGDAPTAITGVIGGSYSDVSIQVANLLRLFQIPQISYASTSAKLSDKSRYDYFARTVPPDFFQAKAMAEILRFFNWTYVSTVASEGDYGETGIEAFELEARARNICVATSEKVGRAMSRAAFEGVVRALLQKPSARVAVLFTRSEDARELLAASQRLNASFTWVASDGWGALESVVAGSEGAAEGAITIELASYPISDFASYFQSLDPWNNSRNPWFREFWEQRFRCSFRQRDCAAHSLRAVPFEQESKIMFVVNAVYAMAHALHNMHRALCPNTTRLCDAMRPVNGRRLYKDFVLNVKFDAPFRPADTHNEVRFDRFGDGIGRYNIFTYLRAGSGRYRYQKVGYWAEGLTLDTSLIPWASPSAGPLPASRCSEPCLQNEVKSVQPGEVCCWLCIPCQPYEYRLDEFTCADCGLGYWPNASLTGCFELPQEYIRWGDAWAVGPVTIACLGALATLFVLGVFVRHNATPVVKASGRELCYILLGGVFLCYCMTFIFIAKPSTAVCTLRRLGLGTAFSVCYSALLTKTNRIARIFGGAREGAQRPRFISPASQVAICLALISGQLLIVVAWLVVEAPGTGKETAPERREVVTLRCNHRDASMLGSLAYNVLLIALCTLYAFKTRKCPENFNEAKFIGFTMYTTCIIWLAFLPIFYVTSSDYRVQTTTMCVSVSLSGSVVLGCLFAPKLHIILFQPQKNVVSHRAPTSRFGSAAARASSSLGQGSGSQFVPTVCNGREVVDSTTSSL

For `CC(Oc1ccc(F)cc1F)c1ccn2c(CC3CCC3)nnc2c1C(F)(F)F` (single isomer, unassigned) [Compound 17, 3-(Cyclobutylmethyl)-7-[(1*R)-1-(2,4-difluorophenoxy)ethyl]-8-(trifluoromethyl)[1,2,4]triazolo[4,3-a]pyridine], which EC50 is on record?
Its EC50 is 18.6 nM.

How did the EC50 turn out when `CC(Oc1ccc(F)cc1F)c1ccn2c(CC3CCC3)nnc2c1C(F)(F)F` (single isomer, unassigned) [Compound 18, 3-(Cyclobutylmethyl)-7-[(1*S)-1-(2,4-difluorophenoxy)ethyl]-8-(trifluoromethyl)[1,2,4]triazolo[4,3-a]pyridine] was run?
Its EC50 is 575 nM.

For `CCOCc1nnc2c(C(F)(F)F)c(C(C)Oc3c(F)cc(F)cc3F)ccn12` (single isomer, unassigned) [Compound 22, 3-(Ethoxymethyl)-8-(trifluoromethyl)-7-[(1*R)-1-(2,4,6-trifluorophenoxy)ethyl][1,2,4]triazolo[4,3-a]pyridine], which EC50 is on record?
Its EC50 is 24.5 nM.

How did the EC50 turn out when `CCOCc1nnc2c(C(F)(F)F)c(C(C)Oc3c(F)cc(F)cc3F)ccn12` (single isomer, unassigned) [Compound 23, 3-(Ethoxymethyl)-8-(trifluoromethyl)-7-[(1*S)-1-(2,4,6-trifluorophenoxy)ethyl][1,2,4]triazolo[4,3-a]pyridine] was run?
Its EC50 is 1150 nM.

With `CC(Oc1ccc(F)cc1F)c1ccn2c(CC3CCC3)nnc2c1C(F)(F)F` (centres unmarked) [Compound 16, 3-(Cyclobutylmethyl)-7-[1-(2,4-difluorophenoxy)ethyl]-8-(trifluoromethyl)[1,2,4]triazolo[4,3-a]pyridine] as the compound, how does the EC50 read?
The EC50 was 28.8 nM.

Same assay, conditions: in presence of glutamate at EC20; EC50 expressed in M; read-out: GTPγS - hmGluR2 PAM pEC50 (converted)

`CC(Oc1ccc(F)cc1)c1ccn2c(CC3CC3)nnc2c1C(F)(F)F` (single isomer, unassigned) [Compound 2, 3-(Cyclopropylmethyl)-7-[(1*R)-1-(4-fluorophenoxy)ethyl]-8-(trifluoromethyl)[1,2,4]triazolo[4,3-a]pyridine] was tested. Which EC50 did it give?
Its EC50 is 145 nM.

Which EC50 does the source give for `CC(Oc1ccc(F)cc1)c1ccn2c(CC3CC3)nnc2c1C(F)(F)F` (single isomer, unassigned) [Compound 3, 3-(Cyclopropylmethyl)-7-[(1*S)-1-(4-fluorophenoxy)ethyl]-8-(trifluoromethyl)[1,2,4]triazolo[4,3-a]pyridine] here?
The EC50 was 1620 nM.

How did the EC50 turn out when `CCOCc1nnc2c(C(F)(F)F)c(C(C)Oc3ccc(F)cc3F)ccn12` (single isomer, unassigned) [Compound 20, 7-[(1*R)-1-(2,4-Difluorophenoxy)ethyl]-3-(ethoxymethyl)-8-(trifluoromethyl)[1,2,4]triazolo[4,3-a]pyridine] was run?
The EC50 was 85.1 nM.

`CCOCc1nnc2c(C(F)(F)F)c(C(C)Oc3ccc(F)cc3F)ccn12` (single isomer, unassigned) [Compound 21, 7-[(1*S)-1-(2,4-Difluorophenoxy)ethyl]-3-(ethoxymethyl)-8-(trifluoromethyl)[1,2,4]triazolo[4,3-a]pyridine] was tested. Which EC50 did it give?
The EC50 was 479 nM.

How did the EC50 turn out when `CCCc1nnc2c(C(F)(F)F)c(C(C)Oc3ccc(F)cc3F)ccn12` (single isomer, unassigned) [Compound 31] was run?
Its EC50 is 89.1 nM.

How did the EC50 turn out when `CCCc1nnc2c(C(F)(F)F)c(C(C)Oc3ccc(F)cc3F)ccn12` (single isomer, unassigned) [Compound 32] was run?
Its EC50 is 1950 nM.

Which EC50 does the source give for `CC(Oc1ccc(F)cc1)c1ccn2c(CC3CC3)nnc2c1C(F)(F)F` (centres unmarked) [Compound 1, 3-(Cyclopropylmethyl)-7-[1-(4-fluorophenoxy)ethyl]-8-(trifluoromethyl)[1,2,4]triazolo[4,3-a]pyridine] here?
Its EC50 is 257 nM.

With `CC(Oc1ccc(F)cc1F)c1ccn2c(CC3CC3)nnc2c1C(F)(F)F` (centres unmarked) [Compound 4, 3-(Cyclopropylmethyl)-7-[1-(2,4-difluorophenoxy)ethyl]-8-(trifluoromethyl)[1,2,4]triazolo[4,3-a]pyridine] as the compound, how does the EC50 read?
Its EC50 is 91.2 nM.

Which EC50 does the source give for `C[C@@H](Oc1ccc(F)cc1F)c1ccn2c(CC3CC3)nnc2c1C(F)(F)F` [Compound 5, 3-(Cyclopropylmethyl)-7-[(1R)-1-(2,4-difluorophenoxy)ethyl]-8-(trifluoromethyl)[1,2,4]triazolo[4,3-a]pyridine] here?
Its EC50 is 871 nM.

How did the EC50 turn out when `C[C@H](Oc1cc(F)cc(F)c1)c1ccn2c(CC3CC3)nnc2c1C(F)(F)F` [Compound 7, 3-(Cyclopropylmethyl)-7-[(1S)-1-(3,5-difluorophenoxy)ethyl]-8-(trifluoromethyl)[1,2,4]triazolo[4,3-a]pyridine] was run?
The EC50 was 49 nM.

With `C[C@H](Oc1ccc(F)c(F)c1)c1ccn2c(CC3CC3)nnc2c1C(F)(F)F` [Compound 8, 3-(Cyclopropylmethyl)-7-[(1S)-1-(3,4-difluorophenoxy)ethyl]-8-(trifluoromethyl)[1,2,4]triazolo[4,3-a]pyridine] as the compound, how does the EC50 read?
Its EC50 is 91.2 nM.

How did the EC50 turn out when `C[C@H](Oc1cccc(F)c1F)c1ccn2c(CC3CC3)nnc2c1C(F)(F)F` [Compound 9, 3-(Cyclopropylmethyl)-7-[(1S)-1-(2,3-difluorophenoxy)ethyl]-8-(trifluoromethyl)[1,2,4]triazolo[4,3-a]pyridine] was run?
The EC50 was 50.1 nM.

`C[C@H](Oc1cc(F)ccc1F)c1ccn2c(CC3CC3)nnc2c1C(F)(F)F` [Compound 10, 3-(Cyclopropylmethyl)-7-[(1S)-1-(2,5-difluorophenoxy)ethyl]-8-(trifluoromethyl)[1,2,4]triazolo[4,3-a]pyridine] was tested. Which EC50 did it give?
The EC50 was 33.9 nM.

For `C[C@H](Oc1c(F)cccc1F)c1ccn2c(CC3CC3)nnc2c1C(F)(F)F` [Compound 11, 3-(Cyclopropylmethyl)-7-[(1S)-1-(2,6-difluorophenoxy)ethyl]-8-(trifluoromethyl)[1,2,4]triazolo[4,3-a]pyridine], which EC50 is on record?
Its EC50 is 5.62 nM.

How did the EC50 turn out when `COc1cc(F)ccc1O[C@@H](C)c1ccn2c(CC3CC3)nnc2c1C(F)(F)F` [Compound 12, 3-(Cyclopropylmethyl)-7-[(1S)-1-(4-fluoro-2-methoxyphenoxy)ethyl]-8-(trifluoromethyl)[1,2,4]triazolo[4,3-a]pyridine] was run?
Its EC50 is 102 nM.

For `Cc1ccc(O[C@@H](C)c2ccn3c(CC4CC4)nnc3c2C(F)(F)F)c(Cl)c1` [Compound 13, 7-[(1S)-1-(2-Chloro-4-methylphenoxy)ethyl]-3-(cyclopropylmethyl)-8-(trifluoromethyl)[1,2,4]triazolo[4,3-a]pyridine], which EC50 is on record?
The EC50 was 17.8 nM.

How did the EC50 turn out when `Cc1cc(F)ccc1O[C@@H](C)c1ccn2c(CC3CC3)nnc2c1C(F)(F)F` [Compound 14, 3-(Cyclopropylmethyl)-7-[(1 S)-1-(4-fluoro-2-methylphenoxy)ethyl]-8-(trifluoromethyl)[1,2,4]triazolo[4,3-a]pyridine] was run?
Its EC50 is 29.5 nM.

How did the EC50 turn out when `C[C@H](Oc1c(F)cc(F)cc1F)c1ccn2c(CC3CC3)nnc2c1C(F)(F)F` [Compound 15, 3-(Cyclopropylmethyl)-8-(trifluoromethyl)-7-[(1S)-1-(2,4,6-trifluorophenoxy)ethyl][1,2,4]triazolo[4,3-a]pyridine] was run?
The EC50 was 6.92 nM.

With `CCOCc1nnc2c(C(F)(F)F)c(C(C)Oc3ccc(F)cc3F)ccn12` (centres unmarked) [Compound 19, 7-[1-(2,4-Difluorophenoxy)ethyl]-3-(ethoxymethyl)-8-(trifluoromethyl)[1,2,4]triazolo[4,3-a]pyridine] as the compound, how does the EC50 read?
Its EC50 is 195 nM.

For `CCCc1nnc2c(C(F)(F)F)c(C(C)Oc3ccc(F)cc3F)ccn12` (centres unmarked) [Compound 30, 7-[1-(2,4-Difluorophenoxy)ethyl]-3-propyl-8-(trifluoromethyl)[1,2,4]triazolo[4,3-a]pyridine], which EC50 is on record?
The EC50 was 126 nM.

Same assay, conditions: maximal % effect relative to the control glutamate response; glutamate at EC20

How did the “GTPγS - hmGluR2 PAM Emax” value turn out when `CC(Oc1ccc(F)cc1F)c1ccn2c(CC3CCC3)nnc2c1C(F)(F)F` (single isomer, unassigned) [Compound 18, 3-(Cyclobutylmethyl)-7-[(1*S)-1-(2,4-difluorophenoxy)ethyl]-8-(trifluoromethyl)[1,2,4]triazolo[4,3-a]pyridine] was run?
Its value is 213%.

Same assay, conditions: read-out: GTPγS - hmGluR2 PAM Emax, maximal % effect relative to the control glutamate response; glutamate at EC20

For `CC(Oc1ccc(F)cc1F)c1ccn2c(CC3CCC3)nnc2c1C(F)(F)F` (single isomer, unassigned) [Compound 17, 3-(Cyclobutylmethyl)-7-[(1*R)-1-(2,4-difluorophenoxy)ethyl]-8-(trifluoromethyl)[1,2,4]triazolo[4,3-a]pyridine], which Emax is on record?
The Emax was 317%.

How did the Emax turn out when `CC(Oc1ccc(F)cc1F)c1ccn2c(CC3CCC3)nnc2c1C(F)(F)F` (centres unmarked) [Compound 16, 3-(Cyclobutylmethyl)-7-[1-(2,4-difluorophenoxy)ethyl]-8-(trifluoromethyl)[1,2,4]triazolo[4,3-a]pyridine] was run?
The Emax was 284%.

Which Emax does the source give for `CCOCc1nnc2c(C(F)(F)F)c(C(C)Oc3ccc(F)cc3F)ccn12` (centres unmarked) [Compound 19, 7-[1-(2,4-Difluorophenoxy)ethyl]-3-(ethoxymethyl)-8-(trifluoromethyl)[1,2,4]triazolo[4,3-a]pyridine] here?
The Emax was 297%.
